Measurements taken from patent US20260374750A1, “LIGANDS SPECIFICALLY TARGETING VESICULAR GLUTAMATE TRANSPORTERS FOR SUPER-RESOLUTION IMAGING” (SORBONNE UNIVERSITÉ, priority 2021, published 2026).

Key:
[1] = Fluorimetry: absorption and emission spectra, Stokes shift, molar absorption coefficient, quantum efficiency; format: physicochemical; design: λmax abs / λmax em: unit not given here; key to Stokes shift: λmaxem − λmaxabs (emission peak minus absorption peak); conditions: for Stokes shift: λmaxem-λmaxabs; for ε (molar absorption coefficient) / φ (quantum efficiency): coumarin-343 as reference
Experimental: The physicochemical properties of each ligand were determined thanks to fluorimetry. For each compound, a dilution range was performed and measurements were taken at 1 mM, 316 μM, 100 μM, 31.6 μM, 10 μM, 3.16 μM and 1μ. In 96-well fluorescence microplates, the absorbance and emission spectra of the ligands could be determined at each concentration thanks to a plate spectrophotometer (Tecan). The absorbance spectra are first measured for each compound so as to determine the maximum absorption wavelength (λmaxabs). The fluorescence, or emission, spectra are then determined after excitation of each compound at its λmaxabs, thus allowing obtaining the maximum fluorescence wavelength (λmaxem). Different parameters specific to each of the compounds were determined: • The Stokes shift: it corresponds to the difference between the peak of the absorption spectrum and the peak of the fluorescence spectrum, i.e.: λmaxem-λmaxabs • The molar absorption coefficient (ε): it reflects the capacity of the solutions to absorb light and is determined by the formula ε=A/(C.I)(A: optical density at λmaxabs, C: concentration of the compound, I: constant corresponding to the length of the optical path). ε is expressed in L·cm^−1·mol^−1. • The quantum efficiency (Φ): it represents the ratio of the number of photons emitted to the number of photons absorbed by the compound, i.e. the “probability” for an excited molecule to emit a photon. It takes a value between 0 and 1, 0 corresponding to a non-fluorescent molecule and 1 meaning that there is no de-excitation. Its value is determined thanks to the following formula where Abs: optical density at λmaxabs, AUC: area under the curve of the fluorescence spectrum, n: refractive index of the medium. In this formula, “m” refers to the studied molecule, and “r” to a reference fluorophore.
[formula] • of the fluorescence spectrum, n: refractive index of the medium). In this formula, “m” refers to the studied molecule, and “r” to a reference fluorophore.
The determination of ε and Φ requires the use of a reference fluorescent molecule for which these two parameters are known. Because of its coumarin-type fluorescent pattern, therefore close to those of the studied compounds, coumarin-343 (ε=44300 L·cm−1·mol−1 and Φ=0.63 in ethanol) was used as reference fluorophore. These two parameters were recalculated in the compound dilution medium (DMSO), and were used as a reference in the calculation of ε and Φ for each ligand.
In order to study the effect of a pH variation on the fluorescence intensity of the compounds, the measurements of the absorption and emission spectra were carried out in three different dilution media: • DMSO: pure dimethyl sulfoxide • Phosphate buffer pH 7.2 (0.2 M) • Phosphate buffer pH 5.5 (0.2 M)
FIG. 1 illustrates the absorption and emission spectra of the compound referenced L8, a carboxylic acid from the quinoline family. This is an example of the study carried out on each of the studied fluorophores. The graphic values determined thanks to these spectra are the λmaxabs, the λmaxem and the Stokes shift in each medium. […] The most diluted wells are preferred to see the emission peak of the compound.
The results which are obtained graphically thanks to the excitation and emission spectra and by calculation via the properties of coumarin 343 are grouped in Table 2 below.

[2] = test system: VGLUTs (GLU vesicular transport); assay: Vesicular glutamate reuptake test ([3H]-glutamate, synaptic vesicles); format: biochemical, rat; conditions: for potency in words (EC50): based on EC50; for EC50: vesicular glutamate transport
Experimental: The EC50 was also determined for several of the compounds of the invention.
The vesicular glutamate reuptake was tested as previously described (Kish and Ueda, 1989; Naito and Ueda, 1985; Pietrancosta et al., 2010) with minor modifications. Aliquots of synaptic vesicles […] (obtained by differential centrifugation of rat cortex) were diluted in a solution containing 4 mM HEPES-KOH, pH 7.4 and 0.32M sucrose. The tested compounds were dissolved in 1% ethanol, 1% DMSO (pH was adjusted to 7.4 with 5% KOH) to initial concentrations comprised between 2 mM and 200 μM. The compounds were then diluted to desired final concentrations in a solution containing 10 mM HEPES-KOH, pH 7.4, 0.32 M sucrose, 4 mM KCl, 4 mM MgSO4 (named TPU). The tested compounds were pre-incubated in a solution containing 3 mM ATP-Mg, 1 mM L-aspartic acid, 100 μM glutamate and 0.4 mM […] and 0.4 μM [3H]-Glutamate (1.547 TBq/mmol). After 4 min at 37 °C, the reuptake reaction was initiated by the addition of rat synaptic vesicles. This mixture was incubated for 10 min at 37 °C before adding ice-cold TPU (3.5 mL) and rapidly filtering it through a membrane filter ([…], Millipore MF reference HAWP02500) using a vacuum collector. The filters were washed five times with 3.5 mL of cold TPU and placed in scintillation vials with a scintillation cocktail (optiphase hisafe 3, reference 1200-437, Perkin Elmer). The radioactivity related to the filters was measured in a Beckman LS 6500 scintillation spectrophotometer. The values obtained in the absence of ATP-Mg or in the presence of Carbonyl [COMPOUND LEFT OUT] 3-chlorophenylhydrazone (CCCP, 50 μM reference Sigma C2759) were used to determine the non-specific activity.

striatum slices = assay: Fluorescent labeling of striatum slices; format: cell-based, mouse; conditions: 25 μM, 1 h, 37 °C
Experimental: The compatibility of the fluorescent compounds of the invention was determined in brain slices from newborns mice, a study model with greater integrity than cell culture. Mice aged 4 to 7 days are decapitated. The brains are removed and then placed in Neurobasal™-A Medium (10888022, ThermoFisher Scientific) enriched with 2% B-27™ Plus (A3582801, ThermoFisher Scientific) and 1% (volume/volume) of a mixture of streptomycin (10 mg/mL)/penicillin (10,000 U/mL). The brains are cut into 500 μm thick slices (McIlwain Tissue Chopper, model TC752) then dissociated from each other. The slices corresponding to the striatum are selected and incubated for one hour in the medium in the presence of 25 μM of fluorescent ligand, or without fluorescent molecule for the controls. Incubations in the presence or absence of the reference VGLUT inhibitor were carried out.
The brain slices were incubated in the presence of each of the compounds according to the invention D04, C07, C05, B09, L8, YL151, G02, F11 (See reference correspondences in Table 1). FIG. 4 illustrates the quantification of fluorescence of striatum slices after incubation in the presence of fluorescent compounds of the invention. […] Acquisitions were carried out using a confocal microscope (×5 objective) and the average fluorescence intensity for each slice was quantified. […]

[3] = pH 7 (phosphate buffer pH 7.2, 0.2 M)
[4] = phosphate buffer pH 5.5 (0.2 M)

Compound	λmax abs ([1]; DMSO)	λmax em ([1]; DMSO)	Stokes shift ([1]; DMSO)	ε (molar absorption coefficient) ([1]; DMSO) [L/cm/mol]	φ (quantum efficiency) ([1]; DMSO)	Stokes shift ([1]; pH 5.5)	λmax abs [1, 3]	λmax em [1, 3]	Stokes shift ([1]; pH 7)	λmax abs [1, 4]	λmax em [1, 4]	potency in words (EC50) [2]	EC50 ([2]; coumarin-derived compounds) [nM]	EC50 ([2]; quinoline-derived compounds) [nM]	% inhibition of GLU vesicular transport at 20 μM ([2]; coumarin-derived compounds) [%]	difference between ester (F11) and acid (G02) labeling of slices (striatum slices)	fluorescence intensity of emission spectra ([1]; FIG. 1)	% inhibition of GLU vesicular transport at 20 μM ([2]; quinoline-derived compounds) [%]
CCOC(=O)c1cc2cc(C#Cc3ccc(-c4ccc(N)cc4)cc3)c(O)cc2oc1=O [F11, Ethyl-6-((4′-amino-[1,1′-biphenyl]-4-yl)ethynyl)-7-hydroxy-2-oxo-2H-chromene-3-carboxylate]		500-620	160	62227.6	0.18	45	365	425	60	365	410					no significant difference between the compounds G02 and F11		
O=C(O)c1cc(C(=O)O)c2cc(-c3ccc(-c4ccccc4)cc3)ccc2n1 [LSP13-1152-YL152 (L8), 6-(Biphenyl-4-yl) quinoline-2,4-dicarboxylic Acid]	355	415	60	35280.3	0.32	80	330		80	330	410			22000			very significant fluorescence intensities	49
Nc1ccc(-c2ccc(C#Cc3cc4cc(C(=O)O)c(=O)oc4cc3O)cc2)cc1 [LSP17-1173, 6-((4′-amino-[1,1′-biphenyl]-4-yl)ethynyl)-7-hydroxy-2-oxo-2H-chromene-3-carboxylic Acid]		460	125	51857.8	0.06	47	360		80	365	412	effective at a very low concentration	500		100	no significant difference between the compounds G02 and F11		

The next lines start with results.

λmax abs ([1]; DMSO)	λmax em ([1]; DMSO)	Stokes shift ([1]; DMSO)	ε (molar absorption coefficient) ([1]; DMSO) [L/cm/mol]	φ (quantum efficiency) ([1]; DMSO)	Stokes shift ([1]; pH 5.5)	λmax abs [1, 3]	λmax em [1, 3]	Stokes shift ([1]; pH 7)	λmax abs [1, 4]	λmax em [1, 4]	potency in words (EC50) [2]	EC50 ([2]; coumarin-derived compounds) [nM]	EC50 ([2]; quinoline-derived compounds) [nM]	Compound	% inhibition of GLU vesicular transport at 20 μM ([2]; coumarin-derived compounds) [%]	difference between ester (F11) and acid (G02) labeling of slices (striatum slices)	fluorescence intensity of emission spectra ([1]; FIG. 1)	% inhibition of GLU vesicular transport at 20 μM ([2]; quinoline-derived compounds) [%]
325	410	85	36944.8	0.06	43	365	415	50	365	408				Nc1ccc(-c2ccc(-c3cn(-c4ccc5oc(=O)c(C(=O)O)cc5c4)nn3)cc2)cc1 [LSP17-1115, 6-(4-(4′-amino-[1,1′-biphenyl]-4-yl)-1H-1,2,3-triazol-1-yl)-2-oxo-2H-chromene-3-carboxylic Acid]	6			
330	405-511	75	21908.6	0.14	45	365	416	51	335	380	effective at a very low concentration	400		COc1cc2oc(=O)c(C(=O)O)cc2cc1-n1cc(-c2ccc(-c3ccc(N)cc3)cc2)nn1 [LSP17-1124, 6-(4-(4′-amino-[1,1′-biphenyl]-4-yl)-1H-1,2,3-triazol-1-yl)-7-methoxy-2-oxo-2H-chromene-3-carboxylic Acid]	100			
